# Values quoted from earlier work in patent US5395974A, “Lewis acid catalyzed ammonolysis of nylon” (E. I. Du Pont de Nemours and Company, priority 1994, dated 1995).
# Conditions: values in square brackets in the text
compound,measurement,value
O=C(O)C(F)(F)F [CF3 CO2 --],pKa of the conjugate acid of the anion,0.2
